According to patent US9051351B2, “Hepatocyte growth factor mimics as therapeutic agents” (Washington State University, priority 2011, dated 2015):
Entries after “also recorded” stand apart in the source; their conditions may differ. Read-outs that look alike come from different tables or passages of the source. Where a SMILES comes first, the peptide text is derived from it. [ ]: non-standard residue; d: D form. The star is where a group is joined. Hexanoyl = CCCCCC(=O)*; Ahx = NCCCCCC(=O)O

What was measured:
scopolamine treated rats = test: Morris water maze, scopolamine amnesia model; type: in vivo, rat; conditions: for mean latency to find the pedestal: Dihexa, Hinge 300 pmol, scopolamine 70 nmol
Description: Swim speed was determined from these values.

hippocampal neurons = test: Dendritic spine counts (spinogenesis) in mRFP-β-actin transfected dissociated hippocampal neurons; type: cell-based, rat
[1] = Serum metabolism of peptides in rat serum; type: in vitro ADME; conditions: male, Sprague Dawley, rat, rat serum
Description: Four month old male Sprague Dawley rats were used as the blood source for the metabolism studies. Blood was collected from left/right jugular veins of the rats using sterile catheters. After a 30 minute incubation on ice, the blood was centrifuged at 1000 rpm for 15 min to separate the serum. Serum was then transferred to clean tubes and stored at −20° C. until use.
Except for dihexa all drug solutions were prepared in HPLC grade water at 5 mg/ml. Stock drugs were kept in powder form and stored at −20° C. Serum metabolism experimental procedure and analysis. Rat blood serum samples were pre-equilibrated at 37° C. and then 10 μL (50 μg) of each drug solution was added to 90 μL of rat serum in 1.5 mL Eppendorf tube maintained at 37° C. At specified time intervals, metabolism was terminated by precipitating proteins with the addition of 1 ml of a solution of acetonitrile (ACN) and acetic acid (9:1, v/v). The terminated reaction mixture was stored in refrigerator (5° C.) overnight and centrifuged (14,000 rpm) for 30 min to remove precipitated proteins. The separated supernatant was dried in vacuum concentrator. The dried samples were reconstituted using 200 μL HPLC mobile phase (10% v/v ACN in water), vortexed briefly, and subjected to HPLC separation and analysis. A serum blank experiment to detect any interfering peaks in the HPLC chromatogram was performed by in an identical manner except that no drug was added. Zero time values for each drug candidate were established by first treating the serum with ACN, processing the sample as described above, adding drug, and then performing HPLC analysis.
The degradation rate of drug was determined by measuring the decrease in area under curve (AUC) at the retention time of drug over time. The AUC obtained from the zero time experiment was considered to represent the “100%” drug concentration and was used to determine the decreased drug concentration at each specified time interval. The semi-logarithmic plot of drug concentration vs. time was generated to determine degradation kinetic constant (k) of the tested drug. The half-life of drug was (t1/2) was calculated by 0.693/k.
Analysis of samples was performed using an HPLC system. The system consisted of a communications bus module, pumps, and a photodiode array detector. Separation was achieved using a C18 (250 mm×4.6 mm id., 5 μm particle size) reverse phase column. The column temperature was set at 40° C. The mobile phase consisted of a mixture of ACN and water with 0.1% TFA and was degassed by ultrasonication. Samples were introduced by manual mode with an injection volume of 250 μL. The drug was eluted with a flow rate of 1 mL/min and detected by PDA detector at […] wavelengths of 215 and 280 nm.

[2] = scopolamine icv, dihexa icv 1 nmol

CCCCCC(=O)N[C@@H](Cc1ccc(O)cc1)C(=O)N[C@H](C(=O)NCCCCCC(N)=O)[C@@H](C)CC [Dihexa, N-hexanoic-Tyr-Ile-(6)-aminohexanoic amide] (Hexanoyl-Tyr-Ile-[Ahx]-NH2)
mean latency to find the pedestal (scopolamine treated rats; day one of training, icv): 115.2 s
time spent in the target quadrant, day 9 probe trial (scopolamine treated rats; dihexa at its highest dose, icv, ip and oral delivery): increased the time spent in the target quadrant
time spent in the target quadrant, day 9 probe trial (scopolamine treated rats; dihexa ip 0.05, 0.25, 0.50 mg/kg): Each of the treatment groups was different than the scopolamine
time spent in the target quadrant, day 9 probe trial (scopolamine treated rats; dihexa oral 1.25 and 2.0 mg/kg): Both of the treatment groups were different than the scopolamine
mean latency to find the pedestal (scopolamine treated rats; final day of training (day 8), icv): 62.3 s
mean latency to find the pedestal (scopolamine treated rats; fourth day of training, icv): 63.0 s
latency to escape, Morris water maze (FIG. 21) (scopolamine treated rats; i.c.v. injections, 8 days of training): show rapid facilitation of the task
latency to find the pedestal in the water maze (scopolamine treated rats; scopolamine icv, Dihexa ICV 10 pmoles (low dose)): not 10 pmoles
latency to find the pedestal in the water maze (scopolamine treated rats; scopolamine icv, Dihexa ICV 100 pmoles (high dose), daily, 8 days): reversed scopolamine-dependent learning deficits; also recorded: completely overcome the scopolamine deficits
latency to find the pedestal in the water maze (scopolamine treated rats; scopolamine icv, Dihexa oral 1.25 mg/kg/day (low dose)): partially reversed
latency to find the pedestal in the water maze (scopolamine treated rats; scopolamine icv, Dihexa oral 2 mg/kg/day (high dose), 2 mg/kg/day): no different than controls; also recorded: completely overcome the scopolamine deficits
latency to find the pedestal in the water maze (scopolamine treated rats; scopolamine icv, Dihexa oral 2 mg/kg/day (high dose), listed as dihexa, 2 mg/kg/day): indistinguishable from vehicle controls; also recorded: completely reversed the scopolamine-dependent learning deficit
latency to find the submerged platform in the Morris water maze (scopolamine treated rats; scopolamine icv, dihexa icv 0.1 nmol): significantly improved performance when compared to the scopolamine group on days 5-8
latency to find the submerged platform in the Morris water maze (scopolamine treated rats; [2]): significantly improved performance; also recorded: indistinguishable from the vehicle control group; also recorded: all time points for the 1 nmol dihexa group were different from the scopolamine group
time spent in the target quadrant, day 9 probe trial (scopolamine treated rats; [2]): vehicle control groups were not different
latency to find the submerged platform in the Morris water maze (scopolamine treated rats; scopolamine icv, dihexa ip 0.05 mg/kg): not different than the scopolamine group
latency to find the submerged platform in the Morris water maze (scopolamine treated rats; scopolamine icv, dihexa ip 0.25 mg/kg): different than the scopolamine
latency to find the submerged platform in the Morris water maze (scopolamine treated rats; scopolamine icv, dihexa ip 0.50 mg/kg, 0.5 mg/kg): indistinguishable from vehicle controls; also recorded: different than the scopolamine; also recorded: not different than the vehicle control group
increase in the number of spines (hippocampal neurons; 10^−12 M, 5 day treatment, vs vehicle): ~3 fold
mean spine numbers per 50 μm dendrite length (hippocampal neurons; 10^−12 M, acute 30 minute application on DIV12): 23.9 spines per 50 μm dendrite leng
mean spine numbers per 50 μm dendrite length (hippocampal neurons; neurons transfected with mRFP-β-actin alone, HGF 10 ng/ml, Dihexa or Nle1-AngIV 10^−12 M, 48 hours): 21.8 spines per 50 μm dendrite leng
mean spine numbers per 50 μm dendrite length (hippocampal neurons; neurons transfected with mRFP-β-actin and shMet (c-Met knock-down), HGF 10 ng/ml, Dihexa or Nle1-AngIV 10^−12 M): 12.0 spines per 50 μm dendrite leng
half-life at 0.5 mg/mL ([1]; 37° C., Mean +/− SD, N = 3, read-out: Half-Life (min), serum stability): 336 min
half-life at 0.5 mg/mL ([1]; read-out: t1/2 in rat serum): 330 min
